The values that follow come from patent US20250222146A1, “Radiopharmaceuticals Targeting Somatostatin Receptor 2 and Uses Thereof” (RayzeBio, Inc., priority 2023, published 2025).

SMILES strings stand for the structures. Numbered stars: 1 amine (or outer) side, 2 acyl side, 3 side chain; on linkers, the order of the positions; unused ones are H or OH. Square brackets hold non-standard residues; d marks the D form. Peptide text beside a SMILES is read from it. * marks the point of attachment. DOTA(Lu)NH(CH2)6NHCOCH2 = O=C(CN1CCN2CCN3CCN(CC1)CC(=O)[O][Lu]([O]C(=O)C2)[O]C(=O)C3)NCCCCCCNC(=O)C*; dTrp(βS-Me) = C[C@@H](c1c[nH]c2ccccc12)[C@@H](N)C(=O)O; X4 = C[C@@H](c1ccccc1)[C@H](N[*:1])C(=O)[*:2]; Phe(3R-Me) = C[C@H](c1ccccc1)[C@H](N)C(=O)O; 3Pal = N[C@@H](Cc1cccnc1)C(=O)O; 4Pal = N[C@@H](Cc1ccncc1)C(=O)O; NMehCys = CN[C@@H](CCS)C(=O)O

The target of one assay is SSTR2 (Homo sapiens, UniProt P30874). Kind of assay: SSTR binding affinity by radioligand binding competition assay ([125I]-Tyr11-Somatostatin, membrane extracts). The conditions noted are these: SSTR2 Ki, radioligand competition, [125I]-Tyr11-Somatostatin 0.1 nM, membrane extracts; Ki from IC50 by Cheng Prusoff. As to the method: Macrocyclic peptides in this invention were tested for binding to SSTR protein by a radioligand binding competition assay. For radioligand binding assay, competition binding is performed in duplicate in the wells of a 96 well plate containing binding buffer (HEPES 25 mM pH 7.4, MgCl2 5 mM, CaCl2 1 mM, BSA 0.5%, Saponine 10 μg/ml)), membrane extracts (0.6 μg protein/well), radiotracer ([125I]-Tyr11-Somatostatin, Perkin Elmer NEX389) and test compound. Nonspecific binding is determined by co-incubation with 200-fold excess of cold competitor (SST28). The samples are incubated in a final volume of 0.1 ml for 60 min at room temperature and then filtered over UniFilter-96 GF/C (Revvity 6055690) filter plates. Filters are washed six times with 0.5 ml of ice-cold washing buffer (HEPES 25 mM pH 7.4, MgCl2 5 mM, CaCl2 1 mM) and 50 μl of Microscint 20 (Packard) are added in each well. The plates are incubated 15 min on an orbital shaker and then counted with a TopCount™ for 1 min/well. For IC50 to Ki determination, the Cheng Prusoff equation is used: Ki=IC50/(1+ [tracer]/Kd). [Tracer] is 0.1 nM as mentioned above.
Sequence of SSTR2 (P30874 whole entry): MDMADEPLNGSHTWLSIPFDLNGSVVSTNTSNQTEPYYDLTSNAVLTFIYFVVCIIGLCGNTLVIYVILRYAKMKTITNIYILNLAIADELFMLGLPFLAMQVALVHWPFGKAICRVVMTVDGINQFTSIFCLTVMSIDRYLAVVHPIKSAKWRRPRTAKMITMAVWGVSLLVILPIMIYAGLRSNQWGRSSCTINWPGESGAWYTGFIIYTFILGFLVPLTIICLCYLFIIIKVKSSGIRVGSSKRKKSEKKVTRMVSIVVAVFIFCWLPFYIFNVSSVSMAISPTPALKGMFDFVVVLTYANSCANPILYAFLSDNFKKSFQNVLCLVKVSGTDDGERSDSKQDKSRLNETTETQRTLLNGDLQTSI
For orientation: Displacement assays read how much labelled ligand stays bound in the presence of the test substance.
The term Ki denotes the equilibrium dissociation constant of an inhibitor or competing ligand from its target. For `C[C@@H](O)[C@@H]1NC(=O)[C@H](CCCCN)NC(=O)[C@@H](Cc2c[nH]c3ccccc23)NC(=O)[C@H](Cc2ccc(O)cc2)NC(=O)[C@H](CSCC(=O)NCCCCCCNC(=O)CN2CCN3CCN4CCN(CC2)CC(=O)[O][Lu]([O]C(=O)C3)[O]C(=O)C4)N(C)C(=O)[C@H](Cc2ccccc2)NC1=O` [RB-0003164], the Ki lay within 1 to 3.33 nM.
Turning to `C[C@@H](O)[C@@H]1NC(=O)[C@H](CCCCN)NC(=O)[C@@H](Cc2c[nH]c3ccccc23)NC(=O)[C@H](Cc2ccc(O)cc2)NC(=O)[C@H](CCCCNC(=O)[C@H]2CC[C@H](CNC(=O)CN3CCN4CCN5CCN(CC3)CC(=O)[O][Lu]([O]C(=O)C4)[O]C(=O)C5)CC2)N(C)C(=O)[C@H](Cc2ccccc2)NC1=O` [RB-0003246], the Ki is 1 to 3.33 nM.
Same read-out and setting: under `C[C@@H](O)[C@@H]1NC(=O)[C@H](CCCCN)NC(=O)[C@@H](Cc2c[nH]c3ccccc23)NC(=O)[C@H](Cc2ccc(O)cc2)NC(=O)[C@H](CCCCNC(=O)COCCOCCOCCNC(=O)CN2CCN3CCN4CCN(CC2)CC(=O)[O][Lu]([O]C(=O)C3)[O]C(=O)C4)N(C)C(=O)[C@H](Cc2ccccc2)NC1=O` [RB-0003248] stands 3.33 to 10 nM.

The assay is the same for the next values; noted with them: radioligand competition, [125I]-Tyr11-Somatostatin 0.1 nM, membrane extracts; Ki from IC50 by Cheng Prusoff; read-out: SSTR2 Ki.
`C[C@@H](O)[C@@H]1NC(=O)[C@H](CCCCN)NC(=O)[C@@H](Cc2c[nH]c3ccccc23)NC(=O)[C@H]([C@@H](C)c2ccccc2)NC(=O)[C@H](CCSCC(=O)NCCCCCCNC(=O)CN2CCN3CCN4CCN(CC2)CC(=O)[O][Lu]([O]C(=O)C3)[O]C(=O)C4)N(C)C(=O)[C@H](Cc2ccccc2)NC1=O` [RB-0003136] (cyclo(F[NMehCys](DOTA(Lu)NH(CH2)6NHCOCH2)[X4][dW]KT)): the Ki was 1 to 3.33 nM.
Turning to `C[C@H](c1ccccc1)[C@@H]1NC(=O)[C@H](CCSCC(=O)NCCCCCCNC(=O)CN2CCN3CCN4CCN(CC2)CC(=O)[O][Lu]([O]C(=O)C3)[O]C(=O)C4)N(C)C(=O)[C@H](Cc2ccccc2)NC(=O)[C@H]([C@@H](C)O)NC(=O)[C@H](CCCCN)NC(=O)[C@@H](Cc2c[nH]c3ccccc23)NC1=O` [RB-0003137] (cyclo(F[NMehCys](DOTA(Lu)NH(CH2)6NHCOCH2)[Phe(3R-Me)][dW]KT)), the Ki was under 1 nM.
`C[C@@H](O)[C@@H]1NC(=O)[C@H](CCCCN)NC(=O)[C@@H]([C@@H](C)c2c[nH]c3ccccc23)NC(=O)[C@H](Cc2ccc(O)cc2)NC(=O)[C@H](CCSCC(=O)NCCCCCCNC(=O)CN2CCN3CCN4CCN(CC2)CC(=O)[O][Lu]([O]C(=O)C3)[O]C(=O)C4)N(C)C(=O)[C@H](Cc2ccccc2)NC1=O` [RB-0003148] (cyclo(F[NMehCys](DOTA(Lu)NH(CH2)6NHCOCH2)Y[dTrp(βS-Me)]KT)): the Ki was under 1 nM.
As for `C[C@@H](O)[C@@H]1NC(=O)[C@H](CCCCN)NC(=O)[C@@H](Cc2c[nH]c3ccccc23)NC(=O)[C@H](Cc2ccc(O)cc2)NC(=O)[C@H](CCSCC(=O)NCCCCCCNC(=O)CN2CCN3CCN4CCN(CC2)CC(=O)[O][Lu]([O]C(=O)C3)[O]C(=O)C4)N(C)C(=O)[C@H](Cc2cccnc2)NC1=O` [RB-0003276] (cyclo([3Pal][NMehCys](DOTA(Lu)NH(CH2)6NHCOCH2)Y[dW]KT)), the Ki was 3.33 to 10 nM.
Regarding `C[C@@H](O)[C@@H]1NC(=O)[C@H](CCCCN)NC(=O)[C@@H](Cc2c[nH]c3ccccc23)NC(=O)[C@H](Cc2ccc(O)cc2)NC(=O)[C@H](CCSCC(=O)NCCCCCCNC(=O)CN2CCN3CCN4CCN(CC2)CC(=O)[O][Lu]([O]C(=O)C3)[O]C(=O)C4)N(C)C(=O)[C@H](Cc2ccncc2)NC1=O` [RB-0003277] (cyclo([4Pal][NMehCys](DOTA(Lu)NH(CH2)6NHCOCH2)Y[dW]KT)), the Ki lay in the range of 1 to 3.33 nM.
On to `C[C@@H](O)[C@@H]1NC(=O)[C@H](CCCCN)NC(=O)[C@@H](Cc2c[nH]c3ccccc23)NC(=O)[C@H](Cc2ccc(O)cc2)NC(=O)[C@H](CCSCC(=O)NCCCCCCNC(=O)CN2CCN3CCN4CCN(CC2)CC(=O)[O][Lu]([O]C(=O)C3)[O]C(=O)C4)N(C)C(=O)[C@H]([C@@H](C)c2ccccc2)NC1=O` [RB-0003278] (cyclo(KT[X4][NMehCys](DOTA(Lu)NH(CH2)6NHCOCH2)Y[dW])), for which the Ki was in the range of 1 to 3.33 nM.
